Source: PubChem BioAssay AID248 (DTP/NCI, 2004)
“And” between values parts separate entries of the source, which are not always exact repeats. Equal entries are not always repeated. Toxic doses and inconclusive results are not listed. Rule as the data show it: active = T/C of 150% or more; inactive = T/C below 125%.

Tested on: L1210 leukemia ip in BDF1 mice, survival T/C
Assay: NCI In Vivo Anticancer Drug Screen. Data for tumor model L1210 Leukemia (intraperitoneal) in B6D2F1 (BDF1) mice
Conditions: endpoint: mean survival time, higher = longer survival
Method in brief: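 Survival endpoint. Drug-treated group vs vehicle group, expressed as T divided by C. Tumor passaged by transplantation.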

[1] = dose: 100.0 mg/kg/injection, schedule: Q04DX003 (ip), vehicle: saline with Tween-80
[2] = dose: 200.0 mg/kg/injection, schedule: Q04DX003 (ip), vehicle: saline with Tween-80
[3] = dose: 400.0 mg/kg/injection, schedule: Q04DX003 (ip), vehicle: saline with Tween-80
[4] = dose: 100.0 mg/kg/injection, schedule: Q01DX001 (ip), vehicle: saline
[5] = dose: 100.0 mg/kg/injection, schedule: Q04DX003 (ip), vehicle: saline
[6] = dose: 200.0 mg/kg/injection, schedule: Q04DX003 (ip), vehicle: saline
[7] = dose: 400.0 mg/kg/injection, schedule: Q04DX003 (ip), vehicle: saline
[8] = dose: 100.0 mg/kg/injection, schedule: Q01DX001 (ip), vehicle: Klucel (hydroxypropylcellulose) (HPC)
[9] = dose: 200.0 mg/kg/injection, schedule: Q01DX001 (ip), vehicle: Klucel (hydroxypropylcellulose) (HPC)
[10] = dose: 100.0 mg/kg/injection, schedule: Q01DX009 (ip), vehicle: saline with Tween-80
[11] = dose: 200.0 mg/kg/injection, schedule: Q01DX009 (ip), vehicle: saline with Tween-80
[12] = dose: 400.0 mg/kg/injection, schedule: Q01DX009 (ip), vehicle: saline with Tween-80
[13] = dose: 6.25 mg/kg/injection, schedule: Q01DX009 (ip), vehicle: saline with Tween-80
[14] = dose: 12.5 mg/kg/injection, schedule: Q01DX009 (ip), vehicle: saline with Tween-80
[15] = dose: 25.0 mg/kg/injection, schedule: Q01DX009 (ip), vehicle: saline with Tween-80

Measured: T/C

CC1(OC(=O)c2ccc([N+](=O)[O-])cc2)CC2CCC1C2 (stereo not drawn)
inactive: dose: 100.0 mg/kg/injection, schedule: Q01DX001 (ip), vehicle: saline with Tween-80 98 % of control | dose: 200.0 mg/kg/injection, schedule: Q01DX001 (ip), vehicle: saline with Tween-80 91 % of control | dose: 400.0 mg/kg/injection, schedule: Q01DX001 (ip), vehicle: saline with Tween-80 104 % of control

ClCC1(CCl)COC(c2ccccc2)OC1
inactive: [1] 95 % of control | [2] 93 % of control | [3] 92 % of control

O=C1CC(=O)N(c2ccccc2)N1
inactive: [4] 96 % of control | dose: 200.0 mg/kg/injection, schedule: Q01DX001 (ip), vehicle: saline 98 % of control | dose: 400.0 mg/kg/injection, schedule: Q01DX001 (ip), vehicle: saline 98 % of control

O=c1c(Cl)c(C(Cl)(Cl)Cl)c2ccccc2n1O
inactive: dose: 100.0 mg/kg/injection, schedule: Q04DX003 (ip), vehicle: Klucel (hydroxypropylcellulose) (HPC) 101 % of control | dose: 200.0 mg/kg/injection, schedule: Q04DX003 (ip), vehicle: Klucel (hydroxypropylcellulose) (HPC) 86 % of control

Oc1cc(Cl)ccc1Cl
inactive: dose: 75.0 mg/kg/injection, schedule: Q01DX009 (ip), vehicle: saline 90 % of control | [5] 95 % of control | dose: 150.0 mg/kg/injection, schedule: Q01DX009 (ip), vehicle: saline 101 % of control | [6] 100 % of control | dose: 300.0 mg/kg/injection, schedule: Q01DX009 (ip), vehicle: saline 96 % of control | [7] 98 % of control

CC(=O)c1ccc(Cl)c([N+](=O)[O-])c1
inactive: [8] 91 % of control | dose: 100.0 mg/kg/injection, schedule: Q01DX009 (ip), vehicle: Klucel (hydroxypropylcellulose) (HPC) 105 % of control | [9] 97 % of control | dose: 200.0 mg/kg/injection, schedule: Q01DX009 (ip), vehicle: Klucel (hydroxypropylcellulose) (HPC) 100 % of control | dose: 400.0 mg/kg/injection, schedule: Q01DX001 (ip), vehicle: Klucel (hydroxypropylcellulose) (HPC) 96 % of control

O=C(Nc1ccc([N+](=O)[O-])cc1)C(Cl)(Cl)Cl
inactive: dose: 50.0 mg/kg/injection, schedule: Q01DX001 (ip), vehicle: Klucel (hydroxypropylcellulose) (HPC) 94 % of control | [8] 95 % of control | [9] 97 % of control

O=C(O)c1c(Cl)c(Cl)c(C(=O)O)c(Cl)c1Cl
inactive: [10] 95 % of control | [11] 93 % of control | [12] 89 % of control

COc1cc(/C=N\N=C\c2cc(OC)c(OC)c(OC)c2)cc(OC)c1OC
inactive: [10] 96 % of control | [1] 97 % of control | [11] 96 % of control | [2] 92 % of control | [12] 92 % of control | [3] 92 % of control

O=C(Nc1cccc([N+](=O)[O-])c1)c1ccc(Cl)cc1
inactive: dose: 100.0 mg/kg/injection, schedule: Q04DX003 (ip), vehicle: gum acacia 101 % of control | dose: 200.0 mg/kg/injection, schedule: Q04DX003 (ip), vehicle: gum acacia 95 % of control | dose: 400.0 mg/kg/injection, schedule: Q04DX003 (ip), vehicle: gum acacia 101 % of control

CC1CN(Cl)C(=O)N(Cl)C1=O (stereo not drawn)
inactive: dose: 10.0 mg/kg/injection, schedule: Q01DX001 (ip), vehicle: saline 96 % of control | dose: 20.0 mg/kg/injection, schedule: Q01DX001 (ip), vehicle: saline 98 % of control | dose: 40.0 mg/kg/injection, schedule: Q01DX001 (ip), vehicle: saline 92 % of control

CCN(CC)CCCC(C)NCCCN (stereo not drawn)
inactive: dose: 50.0 mg/kg/injection, schedule: Q01DX009 (ip), vehicle: saline 94 % of control | dose: 100.0 mg/kg/injection, schedule: Q01DX009 (ip), vehicle: saline 100 % of control and 106 % of control | [5] 90 % of control | dose: 200.0 mg/kg/injection, schedule: Q01DX009 (ip), vehicle: saline 104 % of control and 92 % of control | [6] 90 % of control

CC(=O)N1Cc2cc3ccccc3nc2C1
inactive: [5] 98 % of control | [6] 107 % of control | [7] 96 % of control

CCCCCCCCCCOC(=O)C[n+]1cccc(C(=O)Nc2ccc(Cl)cc2)c1
inactive: dose: 12.5 mg/kg/injection, schedule: Q04DX003 (ip), vehicle: saline 97 % of control | dose: 25.0 mg/kg/injection, schedule: Q04DX003 (ip), vehicle: saline 105 % of control | dose: 50.0 mg/kg/injection, schedule: Q04DX003 (ip), vehicle: saline 90 % of control

C[CH2][Sn]1([CH2]C)[O]OC(c2ccccc2)[O]1 (stereo not drawn)
inactive: dose: 0.78 mg/kg/injection, schedule: Q01DX009 (ip), vehicle: saline with Tween-80 101 % of control and 102 % of control | dose: 1.56 mg/kg/injection, schedule: Q01DX009 (ip), vehicle: saline with Tween-80 101 % of control and 110 % of control | dose: 3.12 mg/kg/injection, schedule: Q01DX009 (ip), vehicle: saline with Tween-80 105 % of control and 122 % of control | [13] 100 % of control | dose: 6.25 mg/kg/injection, schedule: Q04DX002 (ip), vehicle: saline with Tween-80 94 % of control | [14] 114 % of control and 121 % of control | dose: 12.5 mg/kg/injection, schedule: Q04DX002 (ip), vehicle: saline with Tween-80 96 % of control | [15] 91 % of control

C=C(C)C1CCCC(Cc2cccc3c(Cl)cccc23)C1 (stereo not drawn)
inactive: dose: 100.0 mg/kg/injection, schedule: Q01DX001 (ip), vehicle: gum acacia 97 % of control | dose: 200.0 mg/kg/injection, schedule: Q01DX001 (ip), vehicle: gum acacia 94 % of control | dose: 400.0 mg/kg/injection, schedule: Q01DX001 (ip), vehicle: gum acacia 99 % of control

Cc1c(O)c2ccc(Cl)cc2n(C)c1=O
inactive: dose: 100.0 mg/kg/injection, schedule: Q04DX002 (ip), vehicle: saline with Tween-80 100 % of control | dose: 200.0 mg/kg/injection, schedule: Q04DX002 (ip), vehicle: saline with Tween-80 94 % of control | dose: 400.0 mg/kg/injection, schedule: Q04DX002 (ip), vehicle: saline with Tween-80 103 % of control

CC1(C(=O)O)C2C=CC(C2)C1C(=O)O (stereo not drawn)
inactive: [5] 96 % of control | [6] 94 % of control | [7] 102 % of control

CC(=O)Nc1ccc(NC(C)=O)cc1
inactive: [1] 95 % of control | [2] 91 % of control | [3] 95 % of control

COc1ccc(N=NN(C)C)cc1
inactive: [13] 98 % of control | [14] 100 % of control | dose: 12.5 mg/kg/injection, schedule: Q04DX003 (ip), vehicle: saline with Tween-80 107 % of control | dose: 18.75 mg/kg/injection, schedule: Q01DX001 (ip), vehicle: saline with Tween-80 107 % of control | [15] 100 % of control | dose: 25.0 mg/kg/injection, schedule: Q04DX003 (ip), vehicle: saline with Tween-80 108 % of control | dose: 37.5 mg/kg/injection, schedule: Q01DX001 (ip), vehicle: saline with Tween-80 108 % of control | dose: 50.0 mg/kg/injection, schedule: Q01DX009 (ip), vehicle: saline with Tween-80 104 % of control | dose: 50.0 mg/kg/injection, schedule: Q04DX003 (ip), vehicle: saline with Tween-80 115 % of control | [1] 108 % of control

C[n+]1c(-c2cc(C(F)(F)F)cc(C(F)(F)F)c2)c2cc(N)ccc2c2ccc(N)cc21
inactive: dose: 100.0 mg/kg/injection, schedule: Q01DX005 (ip), vehicle: water 97 % of control

CCCCCCCN=C(N)c1ccc(C(=O)OC2CCCCC2)cc1
inactive: [4] 96 % of control
